# Data: ChEMBL document CHEMBL5321210, “N-adamantyl-anthranil amide derivatives: New selective ligands for the cannabinoid receptor subtype 2 (CB2R)” (Eur J Med Chem, 2023)
# Active and inactive are the calls of the source. The calls are words filed in the database; no cut-off is given here.
# Tests used:
# THP-1 [1] = assay: Antiinflammatory activity against LPS-activated PMA-differentiated human THP-1 macrophages assessed as increase in IL-10 production at 1 to 10 uM incubated for 24 hrs by ELISA coupled qRT-PCR analysis; type: functional, cell-based; details: dose 1-10 µM
# THP-1 [2] = assay: Antiinflammatory activity in human THP-1 monocytes assessed as decrease in IL-6 production incubated for 24 hrs by ELISA coupled qRT-PCR analysis; type: functional, cell-based; details: dose 1-10 µM
# THP-1 [3] = assay: Antiinflammatory activity in PMA-differentiated human THP-1 macrophages assessed as reduction in IFN-gamma production at 10 uM incubated for 24 hrs by ELISA coupled qRT-PCR analysis relative to control; type: functional; parameters: scale not given: the % may be the effect or the level left
# THP-1 [4] = assay: Antiinflammatory activity in PMA-differentiated human THP-1 macrophages assessed as reduction in IL-1beta production at 10 uM incubated for 24 hrs by ELISA coupled qRT-PCR analysis relative to control; type: functional; parameters: scale not given: the % may be the effect or the level left
# THP-1 [5] = assay: Antiinflammatory activity in PMA-differentiated human THP-1 macrophages assessed as decrease in IFN-gamma production at 10 uM incubated for 24 hrs in the presence of JTE907 by ELISA coupled qRT-PCR analysis; type: functional, cell-based
# THP-1 [6] = assay: Antiinflammatory activity in human THP-1 monocytes assessed as increase in IL-10 production at 10 uM incubated for 24 hrs in the presence of N-(adamantan-1-yl)-4-(pentylamino)-[1,1'-biphenyl]-3-carboxamide by ELISA coupled qRT-PCR analysis; type: functional, cell-based
SMILES,Activity (THP-1 [1]),Activity (THP-1 [2]),Activity (THP-1 [3]) [%],Activity (THP-1 [4]) [%],Activity (THP-1 [5]),Activity (THP-1 [6])
CCCCCNc1ccccc1C(=O)NC12CC3CC(CC(C3)C1)C2,Active,Dose-Dependent Effect,–,–,–,–
O=C(NC1CCCCC1)c1cn(CCN2CCOCC2)c2cc(Cl)ccc2c1=O,–,–,50,50,inactive,inactive
